# From patent publication US6566376B1, “Diphenyl-piperidine derivative” (AstraZeneca UK Limited, priority 1999, dated 2003)
# Counter-ions that a name gives are not always drawn.
row,Compound,melting point [°C]
1,Cc1ccc(Cn2ccc(CN3CCC(c4ccccc4)(c4ccccc4)CC3)n2)cc1 (as salt: hydrochloride),147 to 148
2,Clc1ccc(Cn2cc(CN3CCC(c4ccccc4)(c4ccccc4)CC3)nn2)cc1,148
3,FC(F)(F)c1ccc(Cn2ccc(CN3CCC(c4ccccc4)(c4ccccc4)CC3)n2)cc1 (as salt: hydrochloride),66 to 67
4,"O=C(c1cnc(Cc2ccc(Cl)cc2)[nH]1)N1CCC(c2ccccc2)(c2ccccc2)CC1 [Example 23, [2-(4-Chlorobenzyl)-1H-imidazol-5-yl](4,4-diphenyl-1-piperidinyl)methanone]",105 to 106
5,OCc1cn(Cc2ccc(Cl)cc2)nc1CN1CCC(c2ccccc2)(c2ccccc2)CC1,104 to 105
6,O=Cc1cn(Cc2ccc(Cl)cc2)nc1CN1CCC(c2ccccc2)(c2ccccc2)CC1,133 to 134
7,Fc1ccc(Cn2ccc(CN3CCC(c4ccccc4)(c4ccccc4)CC3)n2)cc1 (as salt: hydrochloride),192 to 193
8,Clc1ccc(Cn2nncc2CN2CCC(c3ccccc3)(c3ccccc3)CC2)cc1,195
9,Clc1ccc(Cc2ncc(CN3CCC(c4ccccc4)(c4ccccc4)CC3)[nH]2)cc1 (as salt: hydrochloride),186 to 187
10,NC(=O)c1c(CN2CCC(c3ccccc3)(c3ccccc3)CC2)ncn1Cc1ccc(Cl)cc1,227 to 228
11,Cc1ccc(Cn2ccc(CN3CCC(c4ccccc4)(c4ccccc4)CC3)n2)cc1C,139 to 140
12,Clc1ccc(Cn2cnc(CN3CCC(c4ccccc4)(c4ccccc4)CC3)c2)cc1 (as salt: hydrochloride),254 to 255
13,CN(C)C(=O)COc1cc(Cl)ccc1Cn1ccc(CN2CCC(c3ccccc3)(c3ccccc3)CC2)n1 (as salt: hydrochloride),181 to 182
14,O=C(O)c1c(CN2CCC(c3ccccc3)(c3ccccc3)CC2)ncn1Cc1ccc(Cl)cc1,135 to 136

# Further lines, results first:
row,melting point [°C],Compound
1,137 to 138,Clc1ccc(Cn2ccc(CN3CCC(c4ccccc4)(c4ccccc4)CC3)n2)cc1 (as salt: hydrochloride)
2,260 to 261,Oc1cc(Cl)ccc1Cn1ccc(CN2CCC(c3ccccc3)(c3ccccc3)CC2)n1 (as salt: hydrochloride)
3,136 to 137,Clc1cccc(Cn2ccc(CN3CCC(c4ccccc4)(c4ccccc4)CC3)n2)c1
4,101 to 102,Clc1ccc(Cn2ccc(CN3CCC(c4ccccc4)(c4ccccc4)CC3)n2)c(Cl)c1 (as salt: hydrochloride)
5,191 to 192,Clc1ccc(Cn2ccc(CN3CCC(c4ccccc4)(c4ccccc4)CC3)n2)cc1Cl (as salt: hydrochloride)
6,73 to 74,COc1cc(Cl)ccc1Cn1ccc(CN2CCC(c3ccccc3)(c3ccccc3)CC2)n1 (as salt: hydrochloride)
